Data reported in patent US20240342265A1, “E PROTEIN-MUTATED WEST NILE VIRUS USED AS LIVE[…] AND ONCOLYTIC DRUG FOR CANCER THERAPY” (priority 2023, published 2024).

What was measured:
[1] = test system: SH-SY5Y cells (human neuroblastoma); experiment: Human neuroblastoma xenograft model in BALB/c nude mice; assay type: in vivo; conditions: Adriamycin group
Description: The attenuated WNV was tested for oncolytic virus activity. Under aseptic conditions, SH-SY5Y cells (4×106/0.1 ml/per mouse) were inoculated into the right flank region of SPF-grade BALB/c nude mice aged 8 to 10 weeks to establish a human neuroblastoma xenograft model. When the diameter of the subcutaneous tumor nodules reached 5˜6 mm (corresponding to a tumor volume of approximately 50 mm3˜100 mm3), the mice were randomly divided into groups ensuring that the difference in tumor volume between groups was <10%. Grouping and management information are as described in Table 4. The day of the first administration was recorded as D1.
The half-effective dose is 421 PFU.

[2] = test system: Neuro-2a cells (mouse-derived neuroblastoma); experiment: Bilateral mouse neuroblastoma model in A/JGpt mice, right-side intratumoral injection; assay type: in vivo
Description: Mouse-derived neuroblastoma cells (Neuro-2a cells, 1×10^8/0.1 ml/mouse) were inoculated into the bilateral lumbar region of A/JGpt female mice (SPF grade 5-week-old). When the diameter of subcutaneous tumor nodules reached 5-6 mm (about 50-100 mm^3), mice were randomly divided into groups per the <10% of tumor volume. The DS1-M2-1 was injected intratumorally only into the right-side tumor on day one.
During the test period, the body weight of each mouse was normal. […] Since the left-side tumor is the non-administered side, it is considered that the effect of DS1-M2-1 on the left-side tumor is a result of the immunotherapy effect.

[3] = Doxorubicin-Hydro group, left tumor
[4] = Doxorubicin-Hydro group, right tumor

For `COc1cccc2c1C(=O)c1c(O)c3c(c(O)c1C2=O)C[C@@](O)(C(=O)CO)C[C@@H]3O[C@H]1C[C@H](N)[C@H](O)[C@H](C)O1` [Adriamycin, doxorubicin], the “% T/C” value [1] was 37.43%, the “% TGITV” value [1] was 63.27% and the “% TGITW” value [1] was 53.12%. For the same compound, the “Tumor Volume (mm^3) Day 31” value [1] was 468.07 ± 145.59 mm^3, the “Tumor Weight” value [1] was 0.406 ± 0.157 g and the “Max % TGITV, L” value [2, 3] was 84.23%. The “No. of mice with tumor completely eliminated, D 22, L” value [2, 3] was 3, the “No. of mice with tumor completely eliminated, No./Total, L” value [2, 3] was 3/10 and the “Max % TGITV, R” value [2, 4] was 83.25%. The “No. of mice with tumor completely eliminated, D 18, R” value [2, 4] was 1, the “No. of mice with tumor completely eliminated, D 22, R” value [2, 4] was 2 and the “No. of mice with tumor completely eliminated, No./Total, R” value [2, 4] was 3/10.

For `CC(=O)O[C@H]1C(=O)[C@@]2(C)[C@H]([C@H](OC(=O)c3ccccc3)[C@]3(O)C[C@H](OC(=O)[C@H](O)[C@@H](NC(=O)c4ccccc4)c4ccccc4)C(C)=C1C3(C)C)[C@]1(OC(C)=O)CO[C@@H]1C[C@@H]2O` [Taxol, paclitaxel], the “Max % TGITV, L” value ([2]; Taxol 20 mg/kg, left tumor) was 50.74%, the “No. of mice with tumor completely eliminated, No./Total, L” value ([2]; Taxol 20 mg/kg, left tumor) was 0/4 and the “Max % TGITV, R” value ([2]; Taxol 20 mg/kg, right tumor) was 46.73%. The “No. of mice with tumor completely eliminated, No./Total, R” value ([2]; Taxol 20 mg/kg, right tumor) was 0/4.
